Measurements from PubChem BioAssay (NCI).
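Assay format: 96-well plates, 48-hour exposure. Here, GI50 denotes the concentration required for 50% inhibition of growth. TGI marks complete inhibition of growth.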

Assays:
Experiment in all cases: NCI anticancer screen, dose series, 48 h
786-0 renal = system: 786-0 renal
A498 renal = system: A498 renal
A549 NSCLC = system: A549 NSCLC
ACHN renal = system: ACHN renal
BT-549 breast = system: BT-549 breast
CCRF-CEM leukemia = system: CCRF-CEM leukemia
COLO 205 colon = system: COLO 205 colon
DU-145 prostate = system: DU-145 prostate
EKVX NSCLC = system: EKVX NSCLC
HCC-2998 colon = system: HCC-2998 colon
HCT-116 colon = system: HCT-116 colon
HCT-15 colon = system: HCT-15 colon
HL-60(TB) leukemia = system: HL-60(TB) leukemia
HOP-62 NSCLC = system: HOP-62 NSCLC
HOP-92 NSCLC = system: HOP-92 NSCLC
HS 578T breast = system: HS 578T breast
HT29 colon = system: HT29 colon
IGROV1 ovarian = system: IGROV1 ovarian
K-562 leukemia = system: K-562 leukemia
KM12 colon = system: KM12 colon
LOX IMVI melanoma = system: LOX IMVI melanoma
M14 melanoma = system: M14 melanoma
MALME-3M melanoma = system: MALME-3M melanoma
MCF7 breast = system: MCF7 breast
MDA-MB-231 breast = system: MDA-MB-231 breast
MDA-MB-435 = system: MDA-MB-435
MOLT-4 leukemia = system: MOLT-4 leukemia
NCI-H226 lung = system: NCI-H226 lung
NCI-H23 lung = system: NCI-H23 lung
NCI-H460 lung = system: NCI-H460 lung
NCI-H522 lung = system: NCI-H522 lung
NCI/ADR-RES ovarian = system: NCI/ADR-RES ovarian
OVCAR-3 ovarian = system: OVCAR-3 ovarian
OVCAR-4 ovarian = system: OVCAR-4 ovarian
OVCAR-5 ovarian = system: OVCAR-5 ovarian
OVCAR-8 ovarian = system: OVCAR-8 ovarian
PC-3 prostate = system: PC-3 prostate
RPMI-8226 leukemia = system: RPMI-8226 leukemia
RXF 393 renal = system: RXF 393 renal
SF-268 CNS = system: SF-268 CNS
SF-295 CNS = system: SF-295 CNS
SF-539 CNS = system: SF-539 CNS
SK-MEL-2 melanoma = system: SK-MEL-2 melanoma
SK-MEL-28 melanoma = system: SK-MEL-28 melanoma
SK-MEL-5 melanoma = system: SK-MEL-5 melanoma
SK-OV-3 ovarian = system: SK-OV-3 ovarian
SN12C renal = system: SN12C renal
SNB-19 CNS = system: SNB-19 CNS
SNB-75 CNS = system: SNB-75 CNS
SR leukemia = system: SR leukemia
SW-620 colon = system: SW-620 colon
T-47D breast = system: T-47D breast
TK-10 renal = system: TK-10 renal
U251 CNS = system: U251 CNS
UACC-257 melanoma = system: UACC-257 melanoma
UACC-62 melanoma = system: UACC-62 melanoma
UO-31 renal = system: UO-31 renal

CCCc1n(Cc2ccc3ccccc3n2)cc[n+]1Cc1ccc2ccccc2c1
GI50 (786-0 renal): 2930 nM | TGI (786-0 renal): 10200 nM | GI50 (A498 renal): 1810 nM | TGI (A498 renal): 6680 nM | GI50 (A549 NSCLC): 1880 nM | TGI (A549 NSCLC): 11800 nM | GI50 (ACHN renal): 4080 nM | TGI (ACHN renal): 15600 nM | GI50 (BT-549 breast): 230 nM | TGI (BT-549 breast): 1430 nM | GI50 (CCRF-CEM leukemia): 688 nM | TGI (CCRF-CEM leukemia): 6100 nM | GI50 (COLO 205 colon): 319 nM | TGI (COLO 205 colon): 1340 nM | GI50 (DU-145 prostate): 1520 nM | TGI (DU-145 prostate): 12800 nM | GI50 (EKVX NSCLC): 2160 nM | TGI (EKVX NSCLC): 14900 nM | GI50 (HCC-2998 colon): 564 nM | TGI (HCC-2998 colon): 2330 nM | GI50 (HCT-116 colon): 1060 nM | TGI (HCT-116 colon): 7050 nM | GI50 (HCT-15 colon): 12000 nM | TGI (HCT-15 colon): 25400 nM | GI50 (HL-60(TB) leukemia): 312 nM | TGI (HL-60(TB) leukemia): 933 nM | GI50 (HOP-62 NSCLC): 1630 nM | TGI (HOP-62 NSCLC): 5380 nM | GI50 (HOP-92 NSCLC): 188 nM | TGI (HOP-92 NSCLC): 1120 nM | GI50 (HS 578T breast): 2130 nM | TGI (HS 578T breast): 9420 nM | GI50 (HT29 colon): 409 nM | TGI (HT29 colon): 2070 nM | GI50 (IGROV1 ovarian): 807 nM | TGI (IGROV1 ovarian): 3480 nM | GI50 (K-562 leukemia): 428 nM | TGI (K-562 leukemia): 8270 nM | GI50 (KM12 colon): 626 nM | TGI (KM12 colon): 2500 nM | GI50 (LOX IMVI melanoma): 1070 nM | TGI (LOX IMVI melanoma): 2950 nM | GI50 (M14 melanoma): 637 nM | TGI (M14 melanoma): 2760 nM | GI50 (MALME-3M melanoma): 526 nM | TGI (MALME-3M melanoma): 2750 nM | GI50 (MCF7 breast): 647 nM | TGI (MCF7 breast): 4700 nM | GI50 (MDA-MB-231 breast): 1050 nM | TGI (MDA-MB-231 breast): 2860 nM | GI50 (MDA-MB-435): 443 nM | TGI (MDA-MB-435): 2170 nM | GI50 (MOLT-4 leukemia): 708 nM | TGI (MOLT-4 leukemia): 6080 nM | GI50 (NCI-H226 lung): 1200 nM | TGI (NCI-H226 lung): 7600 nM | GI50 (NCI-H23 lung): 479 nM | TGI (NCI-H23 lung): 10600 nM | GI50 (NCI-H460 lung): 658 nM | TGI (NCI-H460 lung): 10600 nM | GI50 (NCI-H522 lung): 249 nM | TGI (NCI-H522 lung): 1130 nM | GI50 (NCI/ADR-RES ovarian): 32800 nM | TGI (NCI/ADR-RES ovarian): > 100000 nM | GI50 (OVCAR-3 ovarian): 452 nM | TGI (OVCAR-3 ovarian): 1960 nM | GI50 (OVCAR-4 ovarian): 357 nM | TGI (OVCAR-4 ovarian): 6590 nM | GI50 (OVCAR-5 ovarian): 2390 nM | TGI (OVCAR-5 ovarian): 12500 nM | GI50 (OVCAR-8 ovarian): 779 nM | TGI (OVCAR-8 ovarian): 4650 nM | GI50 (PC-3 prostate): 487 nM | TGI (PC-3 prostate): 4960 nM | GI50 (RPMI-8226 leukemia): 275 nM | TGI (RPMI-8226 leukemia): 1620 nM | GI50 (RXF 393 renal): 2980 nM | TGI (RXF 393 renal): 14600 nM | GI50 (SF-268 CNS): 1010 nM | TGI (SF-268 CNS): 10600 nM | GI50 (SF-295 CNS): 2060 nM | TGI (SF-295 CNS): 5760 nM | GI50 (SF-539 CNS): 861 nM | TGI (SF-539 CNS): 10400 nM | GI50 (SK-MEL-2 melanoma): 1060 nM | TGI (SK-MEL-2 melanoma): 2850 nM | GI50 (SK-MEL-28 melanoma): 1240 nM | TGI (SK-MEL-28 melanoma): 6230 nM | GI50 (SK-MEL-5 melanoma): 466 nM | TGI (SK-MEL-5 melanoma): 1690 nM | GI50 (SK-OV-3 ovarian): 1260 nM | TGI (SK-OV-3 ovarian): 4020 nM | GI50 (SN12C renal): 478 nM | TGI (SN12C renal): 3510 nM | GI50 (SNB-19 CNS): 551 nM | TGI (SNB-19 CNS): 11400 nM | GI50 (SNB-75 CNS): 410 nM | TGI (SNB-75 CNS): 3470 nM | GI50 (SR leukemia): 472 nM | TGI (SR leukemia): 3030 nM | GI50 (SW-620 colon): 1910 nM | TGI (SW-620 colon): 11700 nM | GI50 (T-47D breast): 307 nM | TGI (T-47D breast): 5550 nM | GI50 (TK-10 renal): 1210 nM | TGI (TK-10 renal): 2810 nM | GI50 (U251 CNS): 380 nM | TGI (U251 CNS): 2540 nM | GI50 (UACC-257 melanoma): 347 nM | TGI (UACC-257 melanoma): 1720 nM | GI50 (UACC-62 melanoma): 574 nM | TGI (UACC-62 melanoma): 2390 nM | GI50 (UO-31 renal): 12000 nM | TGI (UO-31 renal): 25300 nM
